Test results taken from patent US8609654B1, “Compounds for enzyme inhibition” (Onyx Therapeutics, Inc., priority 2006, dated 2013).

Tests used:
[1] = tested on: chymotryptic-like activity of isolated 20S constitutive proteasome vs immunoproteasome; test: Enzyme kinetic assay with isolated 20S proteasome preps, EC50 ratio of CT-L activity (20S ratio); type: biochemical; details: constitutive proteasome to immunoproteasome, >1 = prefers immunoproteasome
Text: Enzyme kinetic assays such as those disclosed in U.S. application Ser. No. 09/569,748, Example 2 and Stein et al., Biochem. (1996), 35, 3899-3908 use isolated 20S proteasome preps with greater than 90% constitutive proteasome subunits or immunoproteasome subunits. The inhibitory preference of the molecule is then based on the EC50 ratio of the chymotryptic-like activity of the constitutive proteasome to that of the immunoproteasome (20S ratio).

[2] = molecular target: T1, 26S proteasome CT-L activity in lysate of HT29 (constitutive) vs Sultan/Thp1 (immunoproteasome) cells (Homo sapiens, UniProt P28062+P28074); test: CT-L EC50 with 26S proteasome in cell lysate (Lysate ratio); type: biochemical; details: HT29 lysate to Sultan/Thp1 lysate, >1 = prefers immunoproteasome
T1 construct: using 26S proteasome in the context of a cell lysate; endogenous in cells; host or cells: HT29 lysate (constitutive); Sultan or THP1 lysate (immunoproteasome)
T1 sequence (P28074 60-263): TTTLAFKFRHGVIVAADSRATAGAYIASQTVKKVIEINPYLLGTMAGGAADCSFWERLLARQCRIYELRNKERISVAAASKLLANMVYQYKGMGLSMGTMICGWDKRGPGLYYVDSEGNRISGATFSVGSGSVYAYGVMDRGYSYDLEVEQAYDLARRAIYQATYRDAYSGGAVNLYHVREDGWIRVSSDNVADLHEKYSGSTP
T1 sequence (P28062 73-276): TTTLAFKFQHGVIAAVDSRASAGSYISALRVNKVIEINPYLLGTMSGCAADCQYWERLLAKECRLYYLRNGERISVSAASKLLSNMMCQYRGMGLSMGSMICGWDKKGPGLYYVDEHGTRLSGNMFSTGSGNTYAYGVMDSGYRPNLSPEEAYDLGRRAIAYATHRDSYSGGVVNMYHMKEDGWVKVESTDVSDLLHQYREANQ
Description: Alternatively, the CT-L EC50 of a compound can be determined using 26S proteasome in the context of a cell lysate. Compound is added to lysate generated from cells that either predominantly express constitutive proteasome (e.g., HT29) or immunoproteasome (e.g., THP1). Again, the inhibitory preference is then based on the EC50 ratio (Lysate ratio).

[3] = molecular target: T2, 20S proteasome subunit β5 vs immunoproteasome subunit LMP7 in RPMI-8226 cells (Homo sapiens, UniProt P28062+P28074); test: ELISA-based active site assay in RPMI-8226 cells (ELISA ratio); type: cell-based; details: for Elisa ratio (beta5:LMP7): EC50 ratio with β5 antibody to LMP7 antibody, RPMI-8226 cells, >1 = prefers immunoproteasome
T2 construct: Cells expressing approximately equivalent amounts of immuno- and constitutive proteasome (e.g., RPMI-8226) are treated with test compound; endogenous in cells; host or cells: RPMI-8226 multiple myeloma cells
T2 sequence (P28074 60-263): T1 sequence (P28074 60-263)
T2 sequence (P28062 73-276): T1 sequence (P28062 73-276)
Description: Lastly, a more cell-based approach can be utilized. Cells expressing approximately equivalent amounts of immuno- and constitutive proteasome (e.g., RPMI-8226) are treated with test compound, followed by the method for determining the activity of a proteasome inhibitor as described in application Ser. No. 11/254,541. The ratio of the EC50 generated in the ELISA-based assay using β5 antibody and LMP7 antibodies (ELISA ratio) provides the basis for determining the inhibitory preference of the test compound. […] In all three assays, a ratio of less than one denotes the molecule inhibits the CT-L activity of the constitutive proteasome better than that of the immunoproteasome. Ratios greater than one signifies the molecule inhibits chymotrypsin-like activity of the immunoproteasome better than that of the constitutive proteasome.
A suitable ELISA assay may be found in U.S. patent application Ser. No. 11/254,541, incorporated herein in its entirety. Briefly, RPMI-8226 cells were treated with 0.1 nM to 1 μM of proteasome Inhibitor B. The samples were then washed with phosphate-buffered saline (PBS) and lysed in hypotonic buffer (20 mM Tris pH 8, 5 mM EDTA) (Tris-HCl and EDTA are available from Teknova, Inc., Hollister, Calif.). Cellular debris was removed by centrifugation at 14,000 rpm in a microfuge (4° C.) for 2 min. The supernatant was transferred to a fresh tube, snap frozen in liquid nitrogen and stored at −80° C. After thawing on ice, the samples (30 μl for assays run in triplicate) were treated with 500 nM of Inhibitor A for 1 hr at room temperature. Following treatment with Inhibitor A, the lysate was denatured by addition of seven volumes of 1% SDS (210 μl) (available from Bio-Rad, Hercules, Calif.) and heating at 99° C. with vigorous shaking for 5 min. The sample was allowed to cool and two volumes (60 μl) of 10% Triton X-100 (available from Bio-Rad, Hercules, Calif.) was added.
Streptavidin sepharose beads (6.5 μl/well) (available from Amersham Biosciences, Piscataway, N.J.), were washed three times with 1 ml PBS (available from Mediatech, Inc., Herndon, Va.) in a microcentrifuge tube. The beads were resuspended in ELISA wash/block buffer (PBS+0.1% Tween 20+1% bovine serum albumin; 20 μl/well) and transferred to the wells of a 96 well filter plate (BSA is available from Sigma, St. Louis, Mo.; Tween is available from Calbiochem, San Diego, Calif.). Denatured whole blood or PBMC lysates that were treated with Inhibitor 3 were added to the filter plate wells containing the streptavidin sepharose beads (each sample assayed in triplicate) and incubated for 1 hr at room temperature with shaking (MultiScreen-DV Opaque Plates with low protein binding durapore membrane; available from Millipore, Billerica, Mass.). The unbound material was removed by gentle filtration and the beads were washed six times with ELISA wash/block buffer (200 μl each).
Primary antibody to human 20S proteasome subunit (35 (rabbit polyclonal antibody; available from Biomol, Plymouth Meeting, Pa.) or human 20S immunoproteasome subunit LMP7 (rabbit polyclonal antibody; available from Affinity BioReagents, Golden, Colo.) was diluted 1:1000 in ELISA wash/block buffer, added to the beads (100 μl/well), and incubated for 1 hr at room temperature on an orbital shaker. The beads were washed six times with ELISA wash/block buffer with gentle filtration. Secondary antibody treatment (1:5000) and washing are as described for primary antibody (goat anti-rabbit antibody-HRP conjugate; available from Biosource, Camarillo, Calif.). The beads were then resuspended in 100 μl chemiluminescent detection reagent (Super Signal Pico Chemiluminescent Substrate™; available from Pierce, Rockford, Ill.) and luminescence was read on a Tecan plate reader. […]

Row | Compound | 20 S ratio (const:immuno) [1] | Lysate ratio (HT29:Sultan/Thp1) [2] | Elisa ratio (beta5:LMP7) [3] | ELISA ratio (EC50 β5 antibody : LMP7 antibody) ([3]; RPMI-8226 cells treated with 0.1 nM to 1 μM)
1 | C[C@H](NC(=O)OCc1ccccc1)C(=O)N[C@@H](Cc1cn(C)c2ccccc12)C(=O)N[C@@H](Cc1ccccc1)C(=O)C1(C)CO1 (some centres unmarked) | >1.0 | >1.0 | >3.0 | –
2 | CC[C@H](C)C(NC(=O)[C@H](Cc1c[nH]c2ccccc12)NC(=O)[C@H](C)NC(=O)OCc1ccccc1)C(=O)C1(C)CO1 (some centres unmarked) | <0.5 | <0.5 | <1.0 | –
3 | COc1ccc(C[C@H](NC(=O)C(C)NC(=O)OCc2ccccc2)C(=O)N[C@@H](Cc2ccccc2)C(=O)C2(C)CO2)cc1 (some centres unmarked) [drawing 86] | >2.0 | >2.0 | >5.0 | –
4 | CC1(C(=O)[C@H](Cc2ccccc2)NC(=O)[C@H](Cc2ccccc2)NC(=O)[C@H](CCC(N)=O)NC(=O)OCc2ccccc2)CO1 (some centres unmarked) | >2.0 | >3.0 | >5.0 | –
5 | CC(NC(=O)OCc1ccccc1)C(=O)N[C@@H](Cc1csc2ccccc12)C(=O)N[C@@H](Cc1ccccc1)C(=O)C1(C)CO1 (some centres unmarked) | >1.0 | >1.0 | >3.0 | –
6 | CC1(C(=O)[C@H](Cc2ccccc2)NC(=O)[C@H](Cc2c[nH]c3ccccc23)NC(=O)[C@H](CCC(N)=O)NC(=O)OCc2ccccc2)CO1 (some centres unmarked) | >1.0 | >3.0 | >1.0 | –
7 | CC(NC(=O)OCc1ccccc1)C(=O)N[C@@H](Cc1c[nH]c2ccccc12)C(=O)N[C@@H](Cc1ccc(O)cc1)C(=O)C1(C)CO1 (some centres unmarked) | >3.0 | >3.0 | >5.0 | –
8 | CC(C)CC(NC(=O)OCc1ccccc1)C(=O)N[C@@H](CC(C)C)C(=O)N[C@@H](CC(C)C)C(=O)C1(C)CO1 (some centres unmarked) | <0.5 | <0.5 | <0.5 | –
9 | CC(NC(=O)OCc1ccccc1)C(=O)N[C@@H](Cc1ccccc1)C(=O)N[C@@H](CCc1ccccc1)C(=O)C1(C)CO1 (some centres unmarked) | >2.0 | >3.0 | >3.0 | –
10 | COc1ccc(NC(=S)N[C@@H](CC(C)C)C(=O)N[C@@H](Cc2ccccc2)C(=O)N[C@@H](CC(C)C)C(=O)C2(C)CO2)cc1 (some centres unmarked) | – | <0.5 | – | –
11 | C[C@H](NC(=O)OCc1ccccc1)C(=O)N[C@@H](Cc1ccc(C(F)(F)F)cc1)C(=O)N[C@@H](Cc1ccccc1)C(=O)C1(C)CO1 (some centres unmarked) | >1.0 | >3.0 | >2.0 | –
12 | CC(C)C(NC(=O)OCc1ccccc1)C(=O)N[C@@H](Cc1ccccc1)C(=O)N[C@@H](Cc1ccccc1)C(=O)C1(C)CO1 (some centres unmarked) | >5.0 | >2.0 | >2.0 | –
13 | C[C@H](NC(=O)OCc1ccccc1)C(=O)N[C@@H](Cc1c[nH]c2ccccc12)C(=O)N[C@@H](C)C(=O)C1(C)CO1 (some centres unmarked) | <0.5 | – | – | –
14 | CC(C)C[C@H](NC(=O)[C@H](Cc1c[nH]c2ccccc12)NC(=O)[C@H](C)NC(=O)OCc1ccccc1)C(=O)C1(C)CO1 (some centres unmarked) | <0.5 | – | – | –
15 | Cc1ccc(CCC(=O)N[C@@H](CC(C)C)C(=O)N[C@@H](Cc2ccccc2)C(=O)N[C@@H](CC(C)C)C(=O)C2(C)CO2)cc1 (some centres unmarked) | – | <0.5 | – | –
16 | CC[C@@H](C)C(NC(=O)[C@H](Cc1ccccc1)NC(=O)C(C)NC(=O)OCc1ccccc1)C(=O)C1(C)CO1 (some centres unmarked) | – | – | <1.0 | –

Results, then the molecule that gave them:

Row | 20 S ratio (const:immuno) [1] | Lysate ratio (HT29:Sultan/Thp1) [2] | Elisa ratio (beta5:LMP7) [3] | ELISA ratio (EC50 β5 antibody : LMP7 antibody) ([3]; RPMI-8226 cells treated with 0.1 nM to 1 μM) | Compound
17 | >1.0 | >2.0 | >5.0 | – | C[C@H](NC(=O)OCc1ccccc1)C(=O)N[C@@H](Cc1c[nH]c2ccccc12)C(=O)N[C@@H](Cc1ccccc1)C(=O)C1(C)CO1 (some centres unmarked)
18 | >2.0 | >2.0 | >3.0 | – | CC(NC(=O)OCc1ccccc1)C(=O)N[C@@H](Cc1cccs1)C(=O)N[C@@H](Cc1ccccc1)C(=O)C1(C)CO1 (some centres unmarked)
19 | >5.0 | >3.0 | >5.0 | – | CC[C@H](C)C(NC(=O)OCc1ccccc1)C(=O)N[C@@H](Cc1c[nH]c2ccccc12)C(=O)N[C@@H](Cc1ccccc1)C(=O)C1(C)CO1 (some centres unmarked)
20 | >5.0 | >5.0 | >5.0 | – | CC(C)C[C@@H](NC(=O)OCc1ccccc1)C(=O)N[C@@H](Cc1c[nH]c2ccccc12)C(=O)N[C@@H](Cc1ccccc1)C(=O)C1(C)CO1 (some centres unmarked)
21 | <0.5 | <0.5 | <0.5 | – | CC(C)C[C@H](NC(=O)OCc1ccccc1)C(=O)N[C@H](CC(C)C)C(=O)N[C@@H](Cc1ccccc1)C(=O)C1(C)CO1 (some centres unmarked)
22 | <0.5 | <0.5 | <0.5 | – | CC(NC(=O)OCc1ccccc1)C(=O)N[C@@H](Cc1ccccc1)C(=O)N[C@@H](C)C(=O)C1(C)CO1 (some centres unmarked)
23 | >5.0 | >2.0 | >5.0 | – | COc1ccc(C[C@H](NC(=O)C(C)NC(=O)OCc2ccccc2)C(=O)N[C@@H](Cc2ccc(O)cc2)C(=O)C2(C)CO2)cc1 (some centres unmarked) [drawing 65]
24 | – | <0.5 | – | – | COc1ccc(NC(=O)NC(CC(C)C)C(=O)N[C@@H](Cc2ccccc2)C(=O)N[C@@H](CC(C)C)C(=O)C2(C)CO2)cc1 (some centres unmarked)
25 | <0.5 | <0.5 | <0.5 | – | CC(C)C[C@H](NC(=O)OCc1ccccc1)C(=O)N[C@@H](Cc1ccccc1)C(=O)N[C@@H](CC(C)C)C(=O)C1(C)CO1 (some centres unmarked)
26 | – | – | – | greater than 20 | CC[C@@H](NC(=O)OCc1ccccc1)C(=O)N[C@@H](Cc1c[nH]c2ccccc12)C(=O)N[C@@H](Cc1ccccc1)C(=O)C1(C)CO1 (some centres unmarked) [inhibitor (B)]
27 | – | <0.5 | – | – | CC(C)CC(NC(=O)Nc1ccccc1)C(=O)N[C@@H](Cc1ccccc1)C(=O)N[C@@H](CC(C)C)C(=O)C1(C)CO1 (some centres unmarked)
